Patent US20250230138A1, “COMPOUNDS HAVING A T-STRUCTURE FORMED BY AT LEAST FOUR CYCLES FOR USE IN THE TREATMENT OF CANCER AND OTHER INDICATIONS” (TheRas, Inc., priority 2022, published 2025)
Read-outs that look alike come from different tables or passages of the source.

What was measured:
[1] = target: Cys242 in human PIK3CA (157-299) (Homo sapiens (Human), UniProt P42336); assay: Covalent modification assay using MALDI-TOF MS; assay type: biochemical; conditions: 4 h reaction time point
How it was run: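 Covalent adduct formation was read by linear-mode MALDI-TOF with sinapinic acid matrix, reported as modified-protein peak height divided by total protein peak heights. Reactions held PIK3CA (157-299) at 1 or 3.33 μM in HEPES/NaCl/MgCl2 buffer, pH 7.3, sampled after 15 min to 4 h at room temperature.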

pAKT in BT474 cells = assay: Cell-based pAKT HTRF assay in BT474 cells; conditions: BT474 cells, 4 hr incubation, read-out: pAKT inhibition IC50 in BT474 cells
How it was run: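 Compound titration: 3 μM downward in 3-fold steps, nine points, 4 hr on cells. Detection: lysis, then d2 plus Eu Cryptate antibody mix, room-temperature incubation of 4–24 h, and time-resolved fluorescence read at 615 nm.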

[2] = 3.33 μM protein target, 1:7.5 protein to compound ratio (compounds 1-852)
[3] = 1 μM protein target, 1:5 protein to compound ratio (compounds 853-1279)
[4] = Homo sapiens, BT-474, Compounds 10-999

Chain of Cys242 in human PIK3CA (157-299) (P42336 157-299): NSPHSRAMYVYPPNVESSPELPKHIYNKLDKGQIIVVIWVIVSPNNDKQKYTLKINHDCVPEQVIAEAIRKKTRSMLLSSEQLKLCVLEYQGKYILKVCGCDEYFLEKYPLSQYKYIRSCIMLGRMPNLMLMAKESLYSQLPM

| Structure (SMILES) | % of modification [1, 2] | IC50 (pAKT in BT474 cells; Compounds 10-999) [nM] | % of modification [1, 3] | IC50 (pAKT in BT474 cells; Compounds 1000-1279) [nM] | IC50 (pAKT in BT474 cells; [4]) [nM] |
| --- | --- | --- | --- | --- | --- |
| C=CC(=O)N1CCc2nc(-c3nc(N4CCN(C(C)C)C(=O)C4)c4ccsc4c3-c3ccc(F)cc3OCCOC)sc2C1 [Compound 176] | A (percent of modification of PIK3CA protein ≥75%) | 100 to 1000 | – | – | – |
| C=CC(=O)N1CCn2nc(-c3nc(-c4ccc5c(c4)CNC5=O)c4ccsc4c3-c3c(F)cc(F)cc3OC[C@@H](C)O)cc2[C@H]1C [Compound 762] | A (percent of modification of PIK3CA protein ≥75%) | < 100 | – | – | – |
| C=CC(=O)N1Cc2cc(-c3nc(-c4ccc5nc(C)oc5c4)c4ccsc4c3-c3c(F)cc(F)cc3OCCOC)nn2CC1C (stereo not drawn) [Compound 497] | A (percent of modification of PIK3CA protein ≥75%) | < 100 | – | – | – |
| C=CC(=O)N1CCc2ncc(-c3nc(-c4ccc5c(c4)CNC(=O)C5)c4ccsc4c3-c3c(F)cc(F)cc3OCCOC)cc2C1 [Compound 963] | – | < 100 | A (percent of modification of PIK3CA protein ≥75%) | – | – |
| C=CC(=O)N1CCn2nc(-c3nc(-c4ccc5c(c4)CN(C)CC54CC4)c4ccsc4c3-c3c(F)cc(F)cc3OCCO)cc2C1C (stereo not drawn) [Compound 1114] | – | – | A (percent of modification of PIK3CA protein ≥75%) | < 100 | – |
| C=CC(=O)N1CCc2nc(-c3nc(-c4ccc5c(c4)CCN(C)C5)c4ccsc4c3-c3c(F)cc(F)cc3OC(C)C)sc2C1 (single isomer, unassigned) [Compound 447] | D (percent of modification <25%) | 100 to 1000 | – | – | – |
| C=CC(=O)N1CCn2nc(-c3nc(-c4ccc5c(c4)C(=O)N(C)CC5)c4ccsc4c3-c3c(F)cc(F)cc3OCCOC)cc2[C@H]1C [Compound 953] | – | < 100 | A (percent of modification of PIK3CA protein ≥75%) | – | – |
| C=CC(=O)N1CCn2nc(-c3nc(-c4cc(F)c(=O)n(CC(F)F)c4)c4ccsc4c3-c3c(F)cc(F)cc3OCCOC)cc2C1C (stereo not drawn) [Compound 1036] | – | – | A (percent of modification of PIK3CA protein ≥75%) | < 100 | – |
| C=CC(=O)N1CCn2nc(-c3nc(-c4ccc5c(c4)CNC5=O)c4c(c3-c3c(F)cc(F)cc3OCCOC)CCC4)cc2[C@H]1C [Compound 1174, 5-((R)-3-((R)-5-acryloyl-4-methyl-4,5,6,7-tetrahydropyrazolo[1,5-a]pyrazin-2-yl)-4-(2,4-difluoro-6-(2-methoxyethoxy)phenyl)-6,7-dihydro-5H-cyclopenta[c]pyridin-1-yl)isoindolin-1-one] | – | – | A (percent of modification of PIK3CA protein ≥75%) | < 100 | – |
| C=CC(=O)N1Cc2cc(-c3nc(-c4ccc5nn(C)cc5c4)c4ccsc4c3-c3c(F)cc(F)cc3OC)nn2[C@@H](C)C1 [Compound 847] | A (percent of modification of PIK3CA protein ≥75%) | < 100 | – | – | – |
| C=CC(=O)N1CCc2nc(-c3nc(-c4ccc5c(c4)C(O)CC5)c4ccsc4c3-c3ccc(F)cc3OCCOC)sc2C1 (stereo not drawn) [Compound 152] | A (percent of modification of PIK3CA protein ≥75%) | < 100 | – | – | – |
| CC(C)Oc1cc(F)ccc1-c1c(-c2cc3n(n2)CCN(C(=O)/C=C/CN(C)C)C3)nc(-c2ccc3c(c2)CCNC3=O)c2ccsc12 [Compound 285] | B (50%<percent of modification <75%) | 100 to 1000 | – | – | – |
| C=CC(=O)N1CCc2ncc(-c3nc(-c4ccn(C)c(=O)c4)c4ccsc4c3-c3c(F)cc(F)cc3OC(C)C)cc2C1 [Compound 336] | A (percent of modification of PIK3CA protein ≥75%) | < 100 | – | – | – |
| C=CC(=O)N1CCn2nc(-c3nc(-c4ccc5c(c4)ncn5C)c4ccsc4c3-c3c(F)cc(F)cc3OCCO)cc2[C@@H]1C [Compound 664, 1-((S)-2-((S)-7-(2,4-difluoro-6-(2-hydroxyethoxy)phenyl)-4-(1-methyl-1H-benzo[d]imidazol-5-yl)thieno[3,2-c]pyridin-6-yl)-4-methyl-6,7-dihydropyrazolo[1,5-a]pyrazin-5(4H)-yl)prop-2-en-1-one] | A (percent of modification of PIK3CA protein ≥75%) | < 100 | – | – | – |
| C=CC(=O)N1Cc2cc(-c3nc(-c4cnc5c(c4)CNC(=O)C5)c4ccsc4c3-c3c(F)cc(F)cc3OC(C)C)nn2CC1C (stereo not drawn) [Compound 495] | A (percent of modification of PIK3CA protein ≥75%) | < 100 | – | – | – |
| C=C(F)C(=O)N1CCn2nc(-c3nc(-c4ccc5c(c4)CCN(C)C5)c4ccsc4c3-c3ccc(F)cc3OCC)cc2C1 [Compound 305] | B (50%<percent of modification <75%) | 100 to 1000 | – | – | – |
| C=CC(=O)N1CC[C@H](n2cc(-c3nc(-c4ccc5c(c4)CNC5=O)c4ccsc4c3-c3c(F)cc(F)cc3OC(C)C)cn2)C1 [Compound 334, 5-[7-(2,4-difluoro-6-isopropoxy-phenyl)-6-[1-[(3S)-1-prop-2-enoylpyrrolidin-3-yl]pyrazol-4-yl]thieno[3,2-c]pyridin-4-yl]isoindolin-1-one] | A (percent of modification of PIK3CA protein ≥75%) | – | – | – | < 100 |
| C=CC(=O)N1CCc2ncc(-c3nc(-c4cnc(C)n4C)c4ccsc4c3-c3c(F)cc(F)cc3OC(C)C)cc2C1 [Compound 412] | A (percent of modification of PIK3CA protein ≥75%) | < 100 | – | – | – |
| C=CC(=O)N1CCc2nc(-c3nc(N4CCN(C(C)C)CC4)c4ccsc4c3-c3ccc(F)cc3OCCOC)sc2C1 [Compound 140] | A (percent of modification of PIK3CA protein ≥75%) | 100 to 1000 | – | – | – |
| C=CC(=O)N1CCn2nc(-c3nc(-c4cnn(C)c4)c4ccsc4c3-c3ccc(F)cc3Cl)cc2C1 [Compound 291] | A (percent of modification of PIK3CA protein ≥75%) | < 100 | – | – | – |
| C=CC(=O)N1CCn2nc(-c3nc(-c4ccc(C(=O)NC)cc4)c4ccsc4c3-c3c(F)cc(F)cc3OCCOC)cc2C1C (stereo not drawn) [Compound 1103] | – | – | A (percent of modification of PIK3CA protein ≥75%) | < 100 | – |
| C=CC(=O)N1CCc2nc(-c3nc(-c4cnn(C)c4)c4ccsc4c3-c3c(F)cc(F)cc3OC(C)C)sc2C1 [Compound 339] | A (percent of modification of PIK3CA protein ≥75%) | < 100 | – | – | – |
| C=CC(=O)N1CCn2nc(-c3nc(-c4ccc(=O)n(C)c4)nc(C)c3-c3ccc(F)cc3OC(C)C)cc2C1 [Compound 331, 5-[5-(4-fluoro-2-isopropoxy-phenyl)-4-methyl-6-(5-prop-2-enoyl-6,7-dihydro-4H-pyrazolo[1,5-a]pyrazin-2-yl)pyrimidin-2-yl]-1-methyl-pyridin-2-one] | A (percent of modification of PIK3CA protein ≥75%) | – | – | – | 1000 to 3000 |
| C=CC(=O)N1Cc2cc(-c3nc(-c4ccc5nncn5c4)c4ccsc4c3-c3c(F)cc(F)cc3OCCO)nn2CC1C (stereo not drawn) [Compound 903] | – | < 100 | A (percent of modification of PIK3CA protein ≥75%) | – | – |
| C=CC(=O)N1CCc2ccc(-c3nc(-c4ccc5c(c4)CNC(=O)C5)c4ccsc4c3-c3c(F)cc(F)cc3OCCOC)cc2C1 [Compound 1066] | – | – | D (percent of modification <25%) | 100 to 1000 | – |
| C=CC(=O)N1CCn2nc(-c3nc(-c4cnc5cnn(C)c5c4)c4ccsc4c3-c3c(F)cc(F)cc3OCCOC)cc2C1C (stereo not drawn) [Compound 902] | – | < 100 | A (percent of modification of PIK3CA protein ≥75%) | – | – |
| C=CC(=O)N1Cc2cc(-c3nc(-c4cnn(C)c4)c4ccsc4c3-c3c(F)cc(F)cc3OC)nn2C[C@H]1C [Compound 820] | A (percent of modification of PIK3CA protein ≥75%) | < 100 | – | – | – |
| C=CC(=O)N1CCn2nc(-c3nc(-c4cnc(N5CCN(C)CC5)nc4)c4ccsc4c3-c3c(F)cc(F)cc3OCCOC)cc2[C@H]1C [Compound 951, 1-((R)-2-((S)-7-(2,4-difluoro-6-(2-methoxyethoxy)phenyl)-4-(2-(4-methylpiperazin-1-yl)pyrimidin-5-yl)thieno[3,2-c]pyridin-6-yl)-4-methyl-6,7-dihydropyrazolo[1,5-a]pyrazin-5(4H)-yl)prop-2-en-1-one] | – | – | A (percent of modification of PIK3CA protein ≥75%) | – | < 100 |
| C=CC(=O)N1CCn2nc(-c3nc(-c4cnc5c(c4)CN(C)C5=O)c4ccsc4c3-c3c(F)cc(F)cc3OCCOC)cc2C1C (stereo not drawn) [Compound 553] | A (percent of modification of PIK3CA protein ≥75%) | < 100 | – | – | – |
| C=CC(=O)N1CC[C@H](n2cc(-c3nc(-c4ccc5c(c4)CCNC5)c4ccsc4c3-c3ccc(F)cc3OCCOC)ccc2=O)C1 [Compound 173] | A (percent of modification of PIK3CA protein ≥75%) | 100 to 1000 | – | – | – |
